Experiment: Cytotoxicity against human NCI60 cells
Format: functional
Conditions: read-out: LC50 (the source's name)

CO[C@H]1C/C=C/c2nc(co2)-c2nc(co2)-c2nc(co2)[C@@H](OC)[C@@H](C)C(=O)/C=C/C[C@H](O)CC(=O)O[C@@H](C[C@H](OC)[C@@H](C)CC[C@@H](OC(=O)[C@@H](C)OC)[C@H](C)[C@H](OC(C)=O)[C@H](C)/C=C/N(C)C=O)[C@@H]1C [MYCALOLIDE C]
CC50: 2500 nM

COCC(OC)C(=O)OC(CCC(C)C(CC1OC(=O)CC(O)C/C=C/C(=O)CC(C)C(=O)NC(=O)c2coc(n2)-c2coc(n2)/C=C/CC(OC)C1C)OC)C(C)C(OC(C)=O)C(C)/C=C/N(C)C=O (configuration not stated) [MYCALOLIDE D]
CC50: 600 nM
